According to ChEMBL document CHEMBL1137252, “Substituted 5-benzyl-2-phenyl-5H-imidazo[4,5-c]pyridines: a new class of pestivirus inhibitors” (Bioorg Med Chem Lett, 2006):
The source made the active and inactive calls. No rule for the calls is given here.

Legend:
Hepatitis C virus = assay: Antiviral activity against HCV 1a; format: functional, organism-based; conditions: Hepacivirus hominis; subtype 1a
[1] = Selectivity index, CC50 for MDBK cells/EC50 for BVDV NADL; format: functional
[2] = Cytotoxicity against MDBK cells; format: cell-based, Bos taurus; conditions: cattle
[3] = system: Bovine viral diarrhea virus 1; assay: Antiviral activity against BVDV NADL in MDBK cells; format: functional, organism-based; conditions: Bovine viral diarrhea virus isolates and strains

Row | Structure (SMILES) | Activity (Hepatitis C virus) | Ratio CC50/EC50 [1] | CC50 [2] [µM] | EC50 [3] [µM]
1 | CCC(CC)Cn1ccc2nc(-c3ccccc3)nc-2c1 | inactive | >52 | > 100 | 1.9
2 | CC(C)CCn1ccc2nc(-c3ccccc3)nc-2c1 | inactive | >26 | > 100 | 3.8
3 | Cc1cccc(Cn2ccc3nc(-c4ccccc4)nc-3c2)c1 | inactive | >167 | > 100 | 0.6
4 | FC(F)(F)c1ccccc1Cn1ccc2nc(-c3ccccc3)nc-2c1 | inactive | >67 | > 100 | 1.5
5 | COc1cccc(Cn2ccc3nc(-c4ccccc4)nc-3c2)c1 | inactive | >200 | > 100 | 0.5
6 | Fc1cccc(Cn2ccc3nc(-c4ccccc4)nc-3c2)c1 | inactive | >667 | > 100 | 0.15
7 | Cc1ccccc1Cn1ccc2nc(-c3ccccc3)nc-2c1 | inactive | >333 | > 100 | 0.3
8 | Cc1ccn(Cc2c(F)cccc2F)c2nc(-c3c(F)cccc3F)nc1-2 | inactive | <=1.1 | > 100 | ≥ 88
9 | Clc1ccc(Cn2ccc3nc(-c4ccccc4)nc-3c2)s1 | inactive | >476 | > 100 | 0.21
10 | Fc1cccc(F)c1Cn1ccc2nc(-c3c(F)cccc3F)nc-2c1 | inactive | >65 | > 100 | 1.5
11 | c1ccc(-c2nc3ccn(Cc4cccnc4)cc-3n2)cc1 | inactive | >59 | > 100 | 1.7
12 | c1ccc(CCCn2ccc3nc(-c4ccccc4)nc-3c2)cc1 | inactive | >143 | > 100 | 0.7
13 | FC(F)(F)Oc1ccc(Cn2ccc3nc(-c4ccccc4)nc-3c2)cc1 | inactive | 244 | 66 | 0.27
14 | Clc1ccc(Cn2ccc3nc(-c4ccccc4)nc-3c2)cc1Cl | inactive | 645 | 71 | 0.11
15 | c1ccc(-c2nc3ccn(Cc4ccc5ccccc5c4)cc-3n2)cc1 | inactive | 13 | 67 | 5
16 | FC(F)(F)c1ccc(Cn2ccc3nc(-c4ccccc4)nc-3c2)cc1 | inactive | 455 | 84 | 0.22
17 | Fc1cccc(F)c1-c1nc2ccn(CCc3ccccc3)cc-2n1 | inactive | >2 | > 100 | 57
18 | Cc1ccc(Cn2ccc3nc(-c4ccccc4)nc-3c2)cc1 | inactive | >769 | > 100 | 0.13
19 | CC(c1ccccc1)n1ccc2nc(-c3ccccc3)nc-2c1 (stereo not drawn) | inactive | >48 | > 100 | 2.1
20 | COc1ccccc1Cn1ccc2nc(-c3ccccc3)nc-2c1 | inactive | >370 | > 100 | 0.27
21 | c1ccc(-c2nc3cc[nH]cc-3n2)cc1 | inactive | >10 | > 100 | 10
22 | Brc1ccccc1Cn1ccc2nc(-c3ccccc3)nc-2c1 | inactive | >357 | > 100 | 0.28
23 | Fc1ccccc1Cn1ccc2nc(-c3ccccc3)nc-2c1 | inactive | >1000 | > 100 | 0.1

Row | Structure (SMILES) | Activity (Hepatitis C virus) | Ratio CC50/EC50 [1] | CC50 [2] [µM] | EC50 [3] [µM]
24 | N#Cc1cccc(Cn2ccc3nc(-c4ccccc4)nc-3c2)c1 | inactive | >25 | > 100 | 4
25 | N#Cc1ccc(Cn2ccc3nc(-c4ccccc4)nc-3c2)cc1 | inactive | >435 | > 100 | 0.23
26 | C(=C\c1ccccc1)/Cn1ccc2nc(-c3ccccc3)nc-2c1 | inactive | 459 | 78 | 0.17
27 | Brc1cccc(Cn2ccc3nc(-c4ccccc4)nc-3c2)c1 | inactive | 304 | 85 | 0.28
28 | Ic1ccc(Cn2ccc3nc(-c4ccccc4)nc-3c2)cc1 | inactive | 183 | 22 | 0.12
29 | Fc1cccc(F)c1-c1nc2ccn(Cc3ccccc3)cc-2n1 | inactive | >25 | > 100 | 4
30 | c1ccc(-c2nc3ccn(Cc4cccc5ccccc45)cc-3n2)cc1 | inactive | 1017 | 61 | 0.06
31 | N#Cc1ccccc1Cn1ccc2nc(-c3ccccc3)nc-2c1 | inactive | >132 | > 100 | 0.76
32 | c1ccc(-c2nc3ccn(CC4CCCCC4)cc-3n2)cc1 | inactive | >118 | > 100 | 0.85
33 | O=C(O)c1ccc(Cn2ccc3nc(-c4ccccc4)nc-3c2)cc1 | inactive | – | > 100 | > 100
34 | c1ccc(CCCCn2ccc3nc(-c4ccccc4)nc-3c2)cc1 | inactive | 45 | 95 | 2.1
35 | Brc1ccc(Cn2ccc3nc(-c4ccccc4)nc-3c2)cc1 | inactive | 1186 | – | 0.07
36 | Fc1cccc(F)c1Cn1c(-c2c(F)cccc2F)nc2cnccc21 | inactive | >6 | > 100 | 16.2
37 | Fc1cccc(F)c1Cn1c(-c2c(F)cccc2F)nc2ccncc21 | inactive | <=2 | 99 | ≥ 48
38 | Fc1ccc(Cn2ccc3nc(-c4ccccc4)nc-3c2)cc1 | inactive | >833 | > 100 | 0.12
39 | Fc1cccc(F)c1Cn1ccc2nc(-c3ccccc3)nc-2c1 | inactive | >435 | > 100 | 0.23
40 | Clc1ccc(Cn2ccc3nc(-c4ccccc4)nc-3c2)cc1 | inactive | >1250 | > 100 | 0.08
41 | Clc1cccc(Cn2ccc3nc(-c4ccccc4)nc-3c2)c1 | inactive | >476 | > 100 | 0.21
42 | c1ccc(-c2nc3ccn(Cc4ccccn4)cc-3n2)cc1 | inactive | >63 | > 100 | 1.6
43 | CC(C)=CCn1ccc2nc(-c3ccccc3)nc-2c1 | inactive | >33 | > 100 | 3
44 | c1ccc(OCCn2ccc3nc(-c4ccccc4)nc-3c2)cc1 | inactive | >370 | > 100 | 0.27
45 | c1ccc(Cn2ccc3nc(-c4ccccc4)nc-3c2)cc1 | inactive | >400 | > 100 | 0.25
